# Assay results taken from patent US20250340574A1, “MODULATORS OF CYSTIC FIBROSIS TRANSMEMBRANE CONDUCTANCE REGULATOR” (Vertex Pharmaceuticals Incorporated, priority 2022, published 2025).
# Biological target: T1, CFTR (F508del/MF-HBE cells) (Homo sapiens, UniProt P13569, DEL508-508)
# T1 construct: human bronchial epithelial (HBE) cells derived from CF subjects heterozygous for F508del and a minimal function CFTR mutation (F508del/MF-HBE); endogenous in cells; host or cells: Primary human bronchial epithelial cells from CF subjects (F508del/MF genotype), differentiated at an air-liquid interface
# T1 sequence (P13569 with tags, fused parts or gaps DEL508-508): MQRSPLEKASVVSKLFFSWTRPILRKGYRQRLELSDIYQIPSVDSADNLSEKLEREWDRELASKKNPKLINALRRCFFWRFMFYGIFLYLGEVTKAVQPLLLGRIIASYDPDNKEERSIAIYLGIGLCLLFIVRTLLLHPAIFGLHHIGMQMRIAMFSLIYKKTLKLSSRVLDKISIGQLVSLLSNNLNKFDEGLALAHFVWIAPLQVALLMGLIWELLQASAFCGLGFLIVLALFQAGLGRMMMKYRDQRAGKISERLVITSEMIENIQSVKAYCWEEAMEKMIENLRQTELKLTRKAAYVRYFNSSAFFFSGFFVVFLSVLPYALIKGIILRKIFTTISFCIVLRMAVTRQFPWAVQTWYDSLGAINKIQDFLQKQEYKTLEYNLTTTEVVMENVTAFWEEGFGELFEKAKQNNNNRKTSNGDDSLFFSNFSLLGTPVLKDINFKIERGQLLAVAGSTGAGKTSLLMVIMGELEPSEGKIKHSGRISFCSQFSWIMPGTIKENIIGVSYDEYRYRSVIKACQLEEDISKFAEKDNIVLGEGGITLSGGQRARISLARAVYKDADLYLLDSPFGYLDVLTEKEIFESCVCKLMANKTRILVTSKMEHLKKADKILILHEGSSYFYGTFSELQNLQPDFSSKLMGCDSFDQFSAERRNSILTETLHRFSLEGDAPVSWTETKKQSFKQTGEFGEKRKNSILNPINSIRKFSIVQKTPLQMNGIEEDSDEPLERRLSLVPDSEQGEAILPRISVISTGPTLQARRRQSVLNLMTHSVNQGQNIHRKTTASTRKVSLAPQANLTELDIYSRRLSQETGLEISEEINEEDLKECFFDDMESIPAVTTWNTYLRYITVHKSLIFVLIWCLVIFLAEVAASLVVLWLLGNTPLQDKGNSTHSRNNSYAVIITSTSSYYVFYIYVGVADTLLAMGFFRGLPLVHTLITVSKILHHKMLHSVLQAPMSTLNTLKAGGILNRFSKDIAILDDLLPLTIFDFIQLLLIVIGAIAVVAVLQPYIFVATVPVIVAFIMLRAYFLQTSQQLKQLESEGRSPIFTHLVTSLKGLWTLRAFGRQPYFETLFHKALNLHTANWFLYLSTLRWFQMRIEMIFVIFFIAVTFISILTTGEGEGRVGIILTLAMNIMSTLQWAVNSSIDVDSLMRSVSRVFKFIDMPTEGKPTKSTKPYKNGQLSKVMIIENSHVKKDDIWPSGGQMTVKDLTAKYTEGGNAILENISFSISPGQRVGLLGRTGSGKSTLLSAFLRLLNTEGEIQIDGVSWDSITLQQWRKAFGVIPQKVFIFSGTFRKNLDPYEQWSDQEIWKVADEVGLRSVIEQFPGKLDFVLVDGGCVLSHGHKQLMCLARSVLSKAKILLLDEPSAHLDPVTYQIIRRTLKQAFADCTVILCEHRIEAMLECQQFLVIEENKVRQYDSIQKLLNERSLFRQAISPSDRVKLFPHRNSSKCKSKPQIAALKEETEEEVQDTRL
# Assay: Ussing chamber assay of CFTR-mediated short-circuit currents, Assay D (single concentration of 1 μM)
# Format: cell-based
# Settings: with 44 nM potentiator and 18 μM Tezacaftor, 18-24 hours, 20% human serum
# Summary of the method: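 F508del/MF-HBE cells were preincubated 18–24 h at 37 °C in 20% human serum with corrector plus 18 μM tezacaftor and either 33 nM (concentration series) or 44 nM (1 μM single point) of the aminotrifluoromethyl triazatricyclic potentiator. Ussing chamber, Vhold=0 mV, 37 °C; forskolin 20 μM stimulation, CFTR ISC taken as inhibitor-cocktail-sensitive current.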
row,SMILES,D activity at 1 μM (%)
1,Cc1cccc(C)c1-c1cc2nc(n1)NS(=O)(=O)c1cccc(c1)C(=O)N(Cc1nc3cc(C(C)C)oc3nc1C(F)(F)F)[C@H](CC1(C)CC1)CO2 [Compound I-142],+++ (+++ is >60%)
2,Cc1cccc(C)c1-c1cc2nc(n1)NS(=O)(=O)c1cccc(c1)C(=O)N(Cc1cnc3oc(C(C)C)cc3n1)[C@H](CC1(C)CCC1)CO2 [Compound I-55],+++ (+++ is >60%)
3,Cc1cccc(C)c1-c1cc2nc(n1)NS(=O)(=O)c1cccc(c1)C(=O)N(Cc1cnc3oc(C(C)C)cc3n1)[C@H](C=C1CCC1)CO2 [Compound I-153],+++ (+++ is >60%)
4,Cc1cccc(C)c1-c1cc2nc(n1)NS(=O)(=O)c1cccc(c1)C(=O)N(Cc1ccc3oc(C4(C)CC4)cc3n1)[C@H](CC1(C)CC1)CO2 [Compound I-226],+++ (+++ is >60%)
5,Cc1cccc(C)c1-c1cc2nc(n1)NS(=O)(=O)c1cccc(c1)C(=O)N(Cc1cnc3oc(C(C)C)cc3n1)[C@H](CC(C)C)CCO2 [Compound I-5],+++ (+++ is >60%)
6,"Cc1cccc(C)c1-c1cc2nc(n1)NS(=O)(=O)c1cccc(c1)C(=O)N(Cc1cnc3cc(C(C)C)n(C)c3n1)[C@H](COC1CCCC1)CO2 [Compound I-121, (11R)-11-(Cyclopentoxymethyl)-6-(2,6-dimethylphenyl)-12-[(6-isopropyl-5-methyl-pyrrolo[2,3-b]pyrazin-3-yl)methyl]-2,2-dioxo-9-oxa-2λ^6-thia-3,5,12,19-tetrazatricyclo[12.3.1.14,8]nonadeca-1(18),4(19),5,7,14,16-hexaen-13-one]",+++ (+++ is >60%)
7,"Cc1cccc(C(C)C)c1-c1nc2nc(c1C)OC[C@@H](CC(C)(C)C)N(Cc1cnc3cc(C(C)C)n(C)c3n1)C(=O)c1cccc(c1)S(=O)(=O)N2 (atropisomer, axis not shown) [Compound I-180]",+++ (+++ is >60%)
8,"Cc1cccc(OC(C)C)c1-c1nc2nc(c1C)OC[C@@H](CC(C)(C)C)N(Cc1cnc3cc(C(C)(C)C)n(C)c3n1)C(=O)c1cccc(c1)S(=O)(=O)N2 (atropisomer, axis not shown) [Compound I-261]",+++ (+++ is >60%)
9,"Cc1cccc(C)c1-c1cc2nc(n1)NS(=O)(=O)c1cccc(c1)C(=O)N(Cc1cnc3oc(C4CC4)cc3n1)[C@@H](CC1CC(C)(C)C1)CO2 (single isomer, unassigned) [Compound I-166, 12-[(6-cyclopropylfuro[2,3-b]pyrazin-2-yl)methyl]-11-[(3,3-dimethylcyclobutyl)methyl]-6-(2,6-dimethylphenyl)-2,2-dioxo-9-oxa-2λ^6-thia-3,5,12,19-tetrazatricyclo[12.3.1.14,8]nonadeca-1(18),4(19),5,7,14,16-hexaen-13-one]",++ (++ is 30-60%)
10,Cc1cccc(C)c1-c1cc2nc(n1)NS(=O)(=O)c1cccc(c1)C(=O)N(Cc1cnc3oc(C(C)C)cc3n1)[C@H](CC1(F)CCC1)CO2 [Compound I-124],+++ (+++ is >60%)
11,Cc1cccc(C)c1-c1cc2nc(n1)NS(=O)(=O)c1cccc(c1)C(=O)N(Cc1cnc3oc(C4CC4)cc3n1)[C@H](COC1CC1)CO2 [Compound I-115],+++ (+++ is >60%)
12,"COCCn1c(C(C)C)cc2ncc(CN3C(=O)c4cccc(c4)S(=O)(=O)Nc4nc(cc(-c5c(C)cccc5C)n4)OC[C@H]3CC(C)(C)C)nc21 [Compound I-117, (11R)-6-(2,6-dimethylphenyl)-11-(2,2-dimethylpropyl)-12-[[6-isopropyl-5-(2-methoxyethyl)pyrrolo[2,3-b]pyrazin-3-yl]methyl]-2,2-dioxo-9-oxa-2λ^6-thia-3,5,12,19-tetrazatricyclo[12.3.1.14,8]nonadeca-1(18),4(19),5,7,14,16-hexaen-13-one]",+++ (+++ is >60%)
13,Cc1cccc(C)c1-c1cc2nc(n1)NS(=O)(=O)c1cccc(c1)C(=O)N(Cc1cnc3oc(C(C)C)cc3n1)[C@H](C[C@@H]1CCCCO1)CO2 [Compound I-8],+++ (+++ is >60%)
14,Cc1cccc(C)c1-c1nc2nc(c1C)OC[C@@H](C[C@H]1CCCCO1)N(Cc1cnc3oc(C4CC4)cc3n1)C(=O)c1cccc(c1)S(=O)(=O)N2 [Compound I-192],+++ (+++ is >60%)
15,Cc1cccc(C)c1-c1cc2nc(n1)NS(=O)(=O)c1cccc(c1)C(=O)N(Cc1cnc3cn(C(C)C)nc3n1)[C@H](CC(C)(C)C)CO2 [Compound I-111],+++ (+++ is >60%)
16,"Cc1cccc(CC(C)C)c1-c1nc2nc(c1C)OC[C@@H](CC(C)(C)C)N(Cc1cnc3oc(C(C)(C)C)cc3n1)C(=O)c1cccc(c1)S(=O)(=O)N2 (atropisomer, axis not shown) [Compound I-238]",+++ (+++ is >60%)
17,"Cc1cccc(C)c1-c1cc2nc(n1)NS(=O)(=O)c1cccc(c1)C(=O)N(Cc1cn3cccc(C(C)C)c3n1)[C@H](CC(C)(C)C)CO2 [III-5, (11R)-6-(2,6-dimethylphenyl)-11-(2,2-dimethylpropyl)-12-[(8-isopropylimidazo[1,2-a]pyridin-2-yl)methyl]-2,2-dioxo-9-oxa-2λ^6-thia-3,5,12,19-tetrazatricyclo[12.3.1.14,8]nonadeca-1(18),4(19),5,7,14,16-hexaen-13-one]",+++ (+++ is >60%)

row,SMILES,D activity at 1 μM (%)
1,Cc1cccc(C)c1-c1cc2nc(n1)NS(=O)(=O)c1cccc(c1)C(=O)N(Cc1cnc3oc(C4CC4)cc3n1)[C@@H](C1CC(C)(C)C1)CO2 [Compound I-163],+++ (+++ is >60%)
2,Cc1cccc(C)c1-c1cc2nc(n1)NS(=O)(=O)c1cccc(c1)C(=O)N(Cc1cnc3cc(C4CC4)n(C)c3n1)[C@H](CC(C)(C)C)CO2 [Compound I-150],+++ (+++ is >60%)
3,"Cc1cccc(C(C)C)c1-c1nc2nc(c1C)OC[C@@H](CC(C)(C)C)N(Cc1cnc3oc(C(C)C)cc3n1)C(=O)c1cccc(c1)S(=O)(=O)N2 (atropisomer, axis not shown) [Compound I-136]",+++ (+++ is >60%)
4,Cc1cccc(C)c1-c1cc2nc(n1)NS(=O)(=O)c1cccc(c1)C(=O)N(Cc1cnc3oc(C(C)C)cc3n1)[C@H](CC(C)(C)C(F)(F)F)CO2 [Compound I-60],+++ (+++ is >60%)
5,Cc1cccc(C)c1-c1nc2nc(c1C)OC[C@@H](CC1(C)CC1)N(Cc1cnc3oc(C(C)(C)C)cc3n1)C(=O)c1cccc(c1)S(=O)(=O)N2 [Compound I-221],+++ (+++ is >60%)
6,"Cc1cccc(C)c1-c1cc2nc(n1)NS(=N)(=O)c1cccc(c1)C(=O)N(Cc1cnc3oc(C4CC4)cc3n1)[C@H](CC(C)(C)C)CO2 (single isomer, unassigned) [Compound I-147]",+++ (+++ is >60%)
7,Cc1cccc(C)c1-c1cc2nc(n1)NS(=O)(=O)c1cccc(c1)C(=O)N(Cc1ccc3oc(C4(C)CC4)cc3n1)[C@H](COC(C)C)CO2 [Compound I-241],+++ (+++ is >60%)
8,Cc1cccc(C)c1-c1cc2nc(n1)NS(=O)(=O)c1cccc(c1)C(=O)N(Cc1cnc3oc(C(C)C)cc3n1)[C@H](CC(C)(C)C)CC2 [Compound I-173],+++ (+++ is >60%)
9,Cc1cccc(C)c1-c1cc2nc(n1)NS(=O)(=O)c1cccc(c1)C(=O)N(Cc1cnc3oc(C4(C)CC4)cc3n1)[C@H](COC(C)C)CO2 [Compound I-186],+++ (+++ is >60%)
10,Cc1cccc(C)c1-c1cc2nc(n1)NS(=O)(=O)c1cccc(c1)C(=O)N(Cc1cnc3oc(C4CC4)cc3n1)[C@H](CC1(C)CCC1)CO2 [Compound I-116],+++ (+++ is >60%)
11,Cc1cccc(CC2CCCCC2)c1-c1nc2nc(c1C)OC[C@@H](CC(C)(C)C)N(Cc1cnc3oc(C4CC4)cc3n1)C(=O)c1cccc(c1)S(=O)(=O)N2 [Compound I-224],+++ (+++ is >60%)
12,Cc1cccc(C)c1-c1cc2nc(n1)NS(=O)(=O)c1cccc(c1)C(=O)N(Cc1cnc3oc(C4(C)CCC4)cc3n1)[C@H](COC(C)C)CO2 [Compound I-144],+++ (+++ is >60%)
13,Cc1cccc(C)c1-c1nc2nc(c1C)OC[C@@H](CC(C)(C)C)N(Cc1ccc3oc(C4(C)CC4)cc3n1)C(=O)c1cccc(c1)S(=O)(=O)N2 [Compound I-235],+++ (+++ is >60%)
14,"Cc1cccc(C)c1-c1cc2nc(n1)NS(=O)(=O)c1cccc(c1)C(=O)N(Cc1cnc3oc(C(C)C)cc3n1)[C@H](CC1CCCO1)CO2 (single isomer, unassigned) [Compound I-22]",+++ (+++ is >60%)
15,CCC(C)(C)C[C@H]1COc2cc(-c3c(C)cccc3C)nc(n2)NS(=O)(=O)c2cccc(c2)C(=O)N1Cc1cnc2oc(C(C)C)cc2n1 (stereo in doubt) [Compound I-39],++ (++ is 30-60%)
16,Cc1cccc(C)c1-c1nc2nc(c1C)OC[C@@H](COC(C)C)N(Cc1cnc3oc(C(C)(C)C)cc3n1)C(=O)c1cccc(c1)S(=O)(=O)N2 [Compound I-216],+++ (+++ is >60%)

# Same assay, conditions: with 44 nM potentiator and 18 μM Tezacaftor, 20% human serum
row,SMILES,D act. at 1 μM (%)
1,Cc1cccc(C)c1-c1cc2nc(n1)NS(=O)(=O)c1cccc(c1)C(=O)N(Cc1cnc3oc(C(C)(C)C)cc3n1)[C@@H](CCC1(C)CC1)CO2 [IV-10],+++ (+++ is >60%)
2,Cc1cccc(C)c1-c1cc2nc(n1)NS(=O)(=O)c1cccc(c1)C(=O)N(Cc1cnc3oc(C#N)cc3n1)[C@H](CC1(C)CC1)CO2 [IV-28],+++ (+++ is >60%)
3,"CC(C)=Cc1cc2nc(CN3C(=O)c4cccc(c4)S(=O)(=O)Nc4nc(cc(-c5c(C)cccc5C)n4)OC[C@H]3CC3(C)CC3)cnc2o1 [IV-17, (11R)-6-(2,6-dimethylphenyl)-11-[(1-methylcyclopropyl)methyl]-12-[[6-(2-methylprop-1-enyl)furo[2,3-b]pyrazin-2-yl]methyl]-2,2-dioxo-9-oxa-2λ^6-thia-3,5,12,19-tetrazatricyclo[12.3.1.14,8]nonadeca-1(18),4(19),5,7,14,16-hexaen-13-one]",+++ (+++ is >60%)
